Bridge positions count the residues as written; N and C are the ends. Square brackets hold non-standard residues; d marks the D form. Ala(benzothiazol-2-yl) = N[C@@H](Cc1nc2ccccc2s1)C(=O)O
What was measured:
[1] = tested on: human liver cancer derived HepG2 cells; assay: Lethal effect of synthetic peptides on HepG2 cells (Trypan blue positive cell count); type: cell-based; conditions: 120, 60, 30 or 15 μM, 24 hours; FIGS. 34 to 37
[2] = tested on: human pancreatic cancer derived AsPC-1 cells; assay: AsPC-1 cell proliferation, WST assay; type: cell-based; conditions: 10, 30 or 100 μM, 72 hours, FIG. 43
Experimental: Human pancreatic cancer derived AsPC-1 cells (ECACC, 96020930) were passaged (twice/week) under the condition of 37° C. and 5% CO2-95% air using an RPMI-1640 medium (Sigma, R8758-500 ML) comprising 10% fetal bovine serum (biowest, S182H-500) and 1 mM sodium pyruvate (gibco, 11360-070). The AsPC-1 cells were collected from a culture dish using 0.05% trypsin-0.02% EDTA solution (Sigma, T4174-100 ML). The cells were suspended in the medium and then seeded on a 96-well microplate (3×10^3/0.05 mL/well). After culturing the cells overnight, a medium comprising the test compounds (total of 43 compounds, final concentration of 150 μM) was added (0.05 mL/well, 3 wells/test compound). After 72 hours, the cell proliferation capability for each well was measured by a WST assay (DOJINDO LABORATORIES, Cell Counting Kit-8), and the inhibition ratio for each test compound against the control (test compound-free well) was calculated.
A WST assay is a viable cell count measuring method, which uses water-soluble tetrazolium salt WST-8 as a coloring reagent and uses water-soluble formazan generated by reduction of WST-8 as an indicator of viable cell count. NADH produced by a dehydrogenase in a cell converts WST-8 to water-soluble formazan. Since the generated water-soluble formazan has the maximum absorbance at about 450 nm, the viable cell count is indicated by measuring the absorbance at such a wavelength region.
Human pancreatic cancer derived AsPC-1 cells (ECACC, 96020930) were cultured, collected, and seeded on a 96-well microplate (3×10^3/0.05 mL/well) in the same manner as Example 3. After culturing the cells overnight, a medium comprising the test compounds (10, 30, or 100 μM) was added (0.05 mL/well, 3 wells/test compound). After 72 hours, the cell proliferation capability for each well was measured by a WST assay (DOJINDO LABORATORIES, Cell Counting Kit-8), and the inhibition ratio for each test compound against the control (test compound-free well) was computed.

[3] = tested on: human T cell leukemia derived ATL-2 cells; assay: ATL-2 cell proliferation, WST assay; type: cell-based; conditions: 150 μM, 72 hours, FIG. 39
Experimental: Human T cell leukemia derived ATL-2 cells (provided by Dr. Maeda at the Kyoto University) were passaged (twice/week) under the condition of 37° C. and 5% CO2-95% air using an RPMI-1640 medium (Sigma, R8758-500 mL) comprising 10% fetal bovine serum (biowest, S182H-500). The ATL-2 cells were collected from a culture flask. The cells were suspended in the medium and then seeded on a 96-well microplate (3×10^3/0.05 mL/well). After culturing the cells overnight, a medium comprising the test compounds (total of 32 compounds, final concentration of 150 μM) was added (0.05 mL/well, 3 wells/test compound). After 72 hours, the cell proliferation capability for each well was measured by a WST assay (DOJINDO LABORATORIES, Cell Counting Kit-8), and the inhibition ratio for each test compound against the control (test compound-free well) was calculated.

[4] = tested on: human pancreatic cancer derived AsPC-1 cells; assay: Tumor growth in AsPC-1 cancer-bearing nude mouse model; type: in vivo; conditions: intraperitoneal
Experimental: (§1) Human pancreatic cancer derived AsPC-1 cells (ECACC, 96020930) were cultured and collected in the same manner as Example 3, suspended in the RPMI-1640 medium described above comprising 10% Matrigel (BD Bioscience, 354234), and transplanted subcutaneously to the right side on the back of a 6-week-old male nude mouse (SLC, BALB/cSlc-nu/nu) (5×10^6/0.1 mL/mouse). The length (L) and width (W) of the tumor were measured using a digital caliper. When the tumor volume (V) calculated from the formula V=L×W^2/2 reached about 150 to 200 mm^3, the mice were separated into groups and administered with test compounds (total of 8 compounds including GT-11263). Saline was administered to a control group. The compounds were administered intraperitoneally (0.1 mL/mouse, 3 to 5 mice/test compound) 3 times daily (one hour interval, a total of 0.2 mg/day), 3 times a week for 2 weeks. The tumor size and body weight were measured twice a week to monitor the status of tumor growth and the effect of the administration of test compounds.
In the same manner as Example 5, human pancreatic cancer derived AsPC-1 cells were transplanted subcutaneously to the right side on the back of a 6-week-old male nude mouse (SLC, BALB/cSlc-nu/nu) (5×10^6/0.1 mL/mouse). The length (L) and width (W) of the tumor were measured using a digital caliper. When the tumor volume (V) calculated from the formula V=L×W^2/2 reached about 150 to 200 mm^3, the mice were separated into groups and administered with test compounds (GT-11269, GT-11309, and GT-11350). Saline was administered to a control group. The compounds were administered intraperitoneally (0.1 mL/mouse, 5 mice/test compound) 3 times daily (one hour interval, a total of 0.5 mg/day), twice a week for 4 weeks. The tumor size and body weight were measured twice a week to monitor the effect of the administration of test compounds (FIG. 45).
(§2) In the same manner as Example 5, human pancreatic cancer derived AsPC-1 cells were transplanted subcutaneously to the right side on the back of a 6-week-old male nude mouse (SLC, BALB/cSlc-nu/nu), and when the tumor volume (V) reached about 150 to 200 mm^3, the mice were separated into groups and administered with test compounds (GT-11350). Saline was administered to a control group. The compounds were administered intraperitoneally (0.1 mL/mouse) 3 times daily (one hour interval, a total of 0.1 mg, 0.2 mg, or 0.4 mg/day), twice a week for 4 weeks. The tumor size and body weight were measured twice a week to monitor the effect of the dose of test compounds (FIG. 49).
as §2, with “of” for “of 0.1 mg,”, “mg/day)” for “mg,”, “once daily (0.2” for “0.4”, “administration” for “dose”, “compounds.” for “compounds (FIG. 49).”

[5] = tested on: human leukemia derived UT-7 cells; assay: Epo dependent UT-7 cell proliferation, WST assay; type: cell-based; conditions: Epo 1 U/mL, 4 days; GT-11309 1 to 100 μM, antibodies 1 to 100 μg/mL; FIG. 42
Experimental: Human leukemia derived UT-7 cells (provided by Dr. Fujita at the Hokkaido University) were passaged (twice/week) under the condition of 37° C. and 5% CO2-95% air using a D-MEM medium (Sigma, D5796-500 ML) comprising recombinant human erythropoietin (Epo, 2 U/mL) and 10% fetal bovine serum (biowest, S182-H-500), and cultured for a total of 9 weeks. The Epo treated UT-7 cells were washed three times and seeded on a 96-well microplate (1×10^4/well). An anti-Epo monoclonal antibody (clone R6, provided by Dr. Masuda at the Kyoto University, 1 to 100 μg/mL), anti-EpoR monoclonal antibody (clone 713210, R&D Systems, MAB3073, 1 to 100 μg/mL) or GT-11309 (1 to 100 μM), in the presence of Epo (0 to 10 U/mL) or Epo (1 U/mL), was added. After 4 days of culture, the cell proliferation capability for each well was measured as absorbance at 450 nm by a WST assay (DOJINDO LABORATORIES, Cell Counting Kit-8).

[6] = Body weight of AsPC-1 cancer-bearing mice given peptides; type: in vivo, mouse; conditions: total 0.1, 0.2 or 0.4 mg/day, twice a week for 4 weeks; FIG. 49
Experimental: as §1, with “The compounds were administered intraperitoneally (0.1 mL/mouse, 3 to 5 mice/test compound) 3 times daily (one hour interval, a total of 0.2 mg/day), 3 times a week for 2 weeks.” left out
In the same manner as Example 5, human pancreatic cancer derived AsPC-1 cells were transplanted subcutaneously to the right side on the back of a 6-week-old male nude mouse (SLC, BALB/cSlc-nu/nu) (5×10^6/0.1 mL/mouse). The length (L) and width (W) of the tumor were measured using a digital caliper. When the tumor volume (V) calculated from the formula V=L×W^2/2 reached about 150 to 200 mm^3, the mice were separated into groups and administered with test compounds (GT-11269, GT-11309, and GT-11350). […]

[7] = Hematocrit value and blood hemoglobin concentration in AsPC-1 cancer-bearing mice; type: in vivo, mouse; conditions: day 4 from final administration, 0.1, 0.2 or 0.4 mg/day; FIG. 50
Experimental: (§3) Blood was drawn on day 6 from the final administration from an AsPC-1 cancer-bearing mouse administered with GT-11269, GT-11309, or GT-11350 by the same protocol, and the hematocrit value was measured by the capillary method using a high speed centrifuge. The blood hemoglobin concentration was also measured using a commercially available measurement kit (BioAssay Systems, DIHB-250) (FIG. 47).
as §3, with “4” for “6”, “with” for “with GT-11269, GT-11309, or”, “50).” for “47).”

[8] = tested on: human breast cancer derived HCC1395 cells; assay: HCC1395 breast cancer cell proliferation, amount of ATP (CellTiter-Glo 2.0); type: cell-based; conditions: 0 to 100 μM, 72 hours; FIG. 44 left
Experimental: (§4) Human breast cancer derived HCC1395 cells (ATCC, CRL-2327) and HCC1806 (ATCC, CRL-2335) were cultured, collected, and seeded on a 384-well microplate (1×10^3 and 3×10^3/0.04 mL/well). After culturing the cells overnight, a medium comprising GT-11350 (0 to 100 μM) was added (0.01 mL/well). After 72 hours, the cell proliferation capability for each well against the control (test compound-free well) was calculated using the amount of ATP as an indicator, which was measured using CellTiter-Glo 2.0 (Promega, G9242).

[9] = tested on: human breast cancer derived HCC1806 cells; assay: HCC1806 breast cancer cell proliferation, amount of ATP (CellTiter-Glo 2.0); type: cell-based; conditions: 0 to 100 μM, 72 hours; FIG. 44 right
Experimental: as §4

Ac-SCHYGPLT(2-benzothiazolylalanine)VCK-NH2 (Ac-SCHYGPLT[Ala(benzothiazol-2-yl)]VCK-NH2; disulfide 2-11 (inferred)) [GT-11309]
HepG2 cell killing effect compared with YS12 (Trypan blue positive cells per 1 mm^2) [1]: equivalent or greater than that of YS12
proliferation inhibiting action against AsPC-1 cells (inhibition ratio against control) [2]: potent proliferation inhibiting action
proliferation inhibiting action on ATL-2 cells (inhibition ratio against control) [3]: potent proliferation inhibiting action
antitumor effect (relative tumor volume) ([4]; 3 times daily, total 0.2 mg/day, 3 times a week for 2 weeks, FIG. 40): potent and had an early manifestation of effect
Epo dependent cancer cell proliferation (UT-7) [5]: suppressed Epo dependent cancer cell proliferation

Ac-SCHYGPMT(2-benzothiazolylalanine)VCK-NH2 [GT-11350]
proliferation inhibiting action against AsPC-1 cells (inhibition ratio against control) [2]: potent proliferation inhibiting action
anti-tumor effect, 3 times daily versus once daily ([4]; 0.2 mg/day, 3 times daily or once daily, twice a week for 4 weeks, FIG. 51): same anti-tumor effect for both 3 times daily and once daily administration methods
anti-tumor effect (relative tumor volume) by dose ([4]; 3 times daily, total 0.1, 0.2 or 0.4 mg/day, twice a week for 4 weeks, FIG. 49): dose dependent anti-tumor effect
body weight [6]: not affected
blood hemoglobin concentration [7]: none of the doses had an effect
hematocrit value [7]: none of the doses had an effect
proliferation suppressing capability against breast cancer cell line HCC1395 [8]: exhibited proliferation suppressing capability
proliferation suppressing capability against breast cancer cell line HCC1806 [9]: exhibited proliferation suppressing capability

From patent publication US12024571B2, “Anti-erythropoietin receptor peptide” (Epo-Med Inc., priority 2018, dated 2024)
